Assays:
[1] = target: hGYS1 enzyme (recombinant hGYS1/GN1 protein) (Homo sapiens (Human), UniProt P13807); assay: GYS1 coupled enzyme assay (PK/LDH); format: biochemical; conditions: hGYS1/GN1 50 nM, UDP-Glucose 0.8 mM, G6P 1 mM; geometric mean of at least 2 runs
[2] = test system: hGYS1 enzyme / glycogen synthesis in HeLa cells; assay: GYS1 cell based assay (glycogen synthesis, Glucose-glo); design: species or system human; conditions: Homo sapiens, HeLa, 24 h, 24 h incubation, 20 mM glucose, geometric mean of at least 2 runs
How it was run: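 HeLa cells starved 24 h in medium containing only 1× Glutamax were plated onto compound in medium with 20 mM glucose (1% DMSO final) for 24 h, 37 °C, 5% CO2. Acid lysates were Tris-quenched, glucoamylase-digested (pH 5.3, 1 h, 37 °C) and read by Glucose-glo luminescence. IC50 came from Hill fits, as geometric mean of ≥2 runs.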

[3] = target: hGYS2 enzyme (recombinant hGYS2/GN1 protein) (Homo sapiens (Human), UniProt P54840); assay: GYS2 coupled enzyme assay (PK/LDH); format: biochemical; conditions: geometric mean of at least 2 assay runs on separate days, read-out: Avg_IC50
How it was run: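 hGYS2/GN1 200 nM; UDP-Glc 2 mM; glycogen 0.2%; G6P 2 mM; PEP 2 mM, NADH 0.6 mM, PK/LDH 20 U/mL. 50 mM Tris pH 7.5, MgCl2, KCl, BSA, TCEP, 2.5% DMSO. Kinetic A340, 10 min. IC50 = geomean of ≥2 runs.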

Chain of hGYS1 enzyme (recombinant hGYS1/GN1 protein) (P13807 whole entry): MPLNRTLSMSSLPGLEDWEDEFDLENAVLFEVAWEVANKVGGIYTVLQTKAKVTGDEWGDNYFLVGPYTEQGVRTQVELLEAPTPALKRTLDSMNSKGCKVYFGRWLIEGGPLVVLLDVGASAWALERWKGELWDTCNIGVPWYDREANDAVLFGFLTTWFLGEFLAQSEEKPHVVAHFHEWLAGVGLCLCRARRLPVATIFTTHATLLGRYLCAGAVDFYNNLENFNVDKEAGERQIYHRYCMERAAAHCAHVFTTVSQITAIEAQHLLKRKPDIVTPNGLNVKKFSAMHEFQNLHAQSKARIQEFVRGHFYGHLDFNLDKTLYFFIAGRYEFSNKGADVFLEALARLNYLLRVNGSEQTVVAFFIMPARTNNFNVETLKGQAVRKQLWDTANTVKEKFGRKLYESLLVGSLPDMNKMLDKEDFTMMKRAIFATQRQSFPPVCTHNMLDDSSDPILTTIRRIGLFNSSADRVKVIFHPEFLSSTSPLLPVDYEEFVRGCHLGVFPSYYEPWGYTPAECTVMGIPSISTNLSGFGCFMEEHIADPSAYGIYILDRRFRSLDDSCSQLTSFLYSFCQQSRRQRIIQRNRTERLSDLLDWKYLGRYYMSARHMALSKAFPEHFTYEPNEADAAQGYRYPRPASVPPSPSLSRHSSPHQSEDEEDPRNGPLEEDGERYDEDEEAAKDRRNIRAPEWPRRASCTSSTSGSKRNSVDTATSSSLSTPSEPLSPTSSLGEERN
Chain of hGYS1 enzyme (recombinant hGYS1/GN1 protein) (P46976 whole entry partner): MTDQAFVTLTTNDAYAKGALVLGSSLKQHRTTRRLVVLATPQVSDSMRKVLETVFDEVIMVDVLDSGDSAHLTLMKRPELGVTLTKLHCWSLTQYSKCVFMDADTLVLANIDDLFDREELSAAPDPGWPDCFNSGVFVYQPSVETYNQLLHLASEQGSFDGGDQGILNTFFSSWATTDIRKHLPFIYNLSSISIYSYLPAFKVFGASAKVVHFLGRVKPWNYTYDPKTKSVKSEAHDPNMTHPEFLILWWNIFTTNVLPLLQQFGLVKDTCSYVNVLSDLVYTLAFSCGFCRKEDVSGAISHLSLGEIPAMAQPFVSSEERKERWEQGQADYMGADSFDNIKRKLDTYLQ
Chain of hGYS2 enzyme (recombinant hGYS2/GN1 protein) (P54840 whole entry): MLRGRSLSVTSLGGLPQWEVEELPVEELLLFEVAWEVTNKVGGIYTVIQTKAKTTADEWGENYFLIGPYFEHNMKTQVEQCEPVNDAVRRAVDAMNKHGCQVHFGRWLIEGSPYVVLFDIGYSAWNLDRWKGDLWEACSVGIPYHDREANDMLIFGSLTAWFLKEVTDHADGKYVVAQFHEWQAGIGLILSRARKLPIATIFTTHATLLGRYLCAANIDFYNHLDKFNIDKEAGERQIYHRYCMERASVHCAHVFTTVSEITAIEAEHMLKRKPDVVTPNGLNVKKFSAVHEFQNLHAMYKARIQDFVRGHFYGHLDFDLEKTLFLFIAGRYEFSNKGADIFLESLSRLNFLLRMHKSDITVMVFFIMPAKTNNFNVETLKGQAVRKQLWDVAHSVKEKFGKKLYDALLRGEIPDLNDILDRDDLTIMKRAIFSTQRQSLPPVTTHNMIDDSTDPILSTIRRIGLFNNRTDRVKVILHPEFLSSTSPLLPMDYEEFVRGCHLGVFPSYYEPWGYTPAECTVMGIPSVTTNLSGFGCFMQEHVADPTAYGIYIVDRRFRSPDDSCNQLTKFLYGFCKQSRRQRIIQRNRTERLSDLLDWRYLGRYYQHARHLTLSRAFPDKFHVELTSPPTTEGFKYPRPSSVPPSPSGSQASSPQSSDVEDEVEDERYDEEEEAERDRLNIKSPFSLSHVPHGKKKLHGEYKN
Chain of hGYS2 enzyme (recombinant hGYS2/GN1 protein) (P46976 whole entry partner): as the sequence (P46976 whole entry partner) above

| Compound | IC50 [1] | IC50 [2] | IC50 [3] |
| --- | --- | --- | --- |
| CC(C)c1ccc([C@@H](NC(=O)[C@@H]2C[C@@H](F)CN2C(=O)Cn2cnnc2)c2ccccc2)cc1 [Compound 202, (2S,4R)-4-fluoro-N-[(S)-phenyl[4-(propan-2-yl)phenyl]methyl]-1-[2-(4H-1,2,4-triazol-4-yl)acetyl]pyrrolidine-2-carboxamide] | 71 nM | 1860 nM | > 100000 nM |
| CC(C)c1ccc([C@@H](NC(=O)[C@@H]2C[C@@H](F)CN2C(=O)CN2CCOCC2=O)c2ccccc2)cc1 [Compound 219, (2S,4R)-4-fluoro-1-[2-(3-oxomorpholin-4-yl)acethyl]-N-[(S)-phenyl[4-(propan-2-yl)phenyl]methyl]pyrrolidine-2-carboxamide] | 101 nM | 1410 nM | > 100000 nM |
| O=C(N[C@@H](c1ccccc1)c1ccc(C2CC2)c(F)n1)[C@@H]1[C@H]2C[C@H]2CN1C(=O)Cc1cnn[nH]1 [Compound 320, (1S,2S,5R)-N-[(S)-(5-cyclopropyl-6-fluoropyridin-2-yl)(phenyl)methyl]-3-[2-(1H-1,2,3-triazol-5-yl)acetyl]-3-azabicyclo[3.1.0]hexane-2-carboxamide] | 197 nM | 1590 nM | > 100000 nM |
| Cc1nn(CC(=O)N2C[C@H](F)C[C@H]2C(=O)N[C@@H](c2ccccc2)c2ccc(C3CC3)c(F)n2)c(=O)o1 [Compound 316, (2S,4R)-N-[(S)-(5-cyclopropyl-6-fluoropyridin-2-yl)(phenyl)methyl]-4-fluoro-1-[2-(5-methyl-2-oxo-2,3-dihydro-1,3,4-oxadiazol-3-yl)acetyl]pyrrolidine-2-carboxamide] | 37 nM | 930 nM | > 100000 nM |
| O=C(N[C@@H](c1ccccc1)c1ccc(C2CC2)c(F)n1)[C@@H]1C[C@@H](F)CN1C(=O)Cc1ccc(=O)[nH]c1 [Compound 734, (2S,4R)-N-[(S)-(5-cyclopropyl-6-fluoropyridin-2-yl)(phenyl)methyl]-4-fluoro-1-[2-(6-oxo-1,6-dihydropyridin-3-yl)acetyl]pyrrolidine-2-carboxamide] | 26 nM | 1730 nM | > 100000 nM |
| O=C(N[C@@H](c1ccccc1)c1ccc(C2CC2)c(F)c1)[C@@H]1C[C@@H](F)CN1C(=O)CNC(=O)N1CC(C(F)(F)F)C1 [Compound 496, (2S,4R)-N-[(S)-(4-cyclopropyl-3-fluorophenyl)(phenyl)methyl]-4-fluoro-1-(2-{[3-(trifluoromethyl)azetidine-1-carbonyl]amino}acetyl) pyrrolidine-2-carboxamide] | 86 nM | 1820 nM | > 100000 nM |

Now those with a lower IC50 [1], led by results:

| IC50 [1] | IC50 [2] | IC50 [3] | Compound |
| --- | --- | --- | --- |
| 23 nM | 290 nM | > 100000 nM | CC(C)c1c(F)cc(C(NC(=O)[C@@H]2C[C@@H](F)CN2C(=O)Cc2cnn[nH]2)c2ccccc2)cc1F (single isomer, unassigned) [Compound 667, (2S,4R)-N-[(S) or (R)-[3,5-difluoro-4-(propan-2-yl)phenyl](phenyl)methyl]-4-fluoro-1-[2-(1H-1,2,3-triazol-5-yl)acetyl]pyrrolidine-2-carboxamide] |
| 13 nM | 640 nM | > 100000 nM | CC(C)c1ccc([C@@H](NC(=O)[C@@H]2C[C@@H](F)CN2C(=O)Cc2cnn[nH]2)c2cccc(-c3ccn[nH]3)c2)nc1F [Compound 686, (2S,4R)-1-(2-(1H-1,2,3-triazol-5-yl)acetyl)-N—((S)-(3-(1H-pyrazol-5-yl)phenyl)(6-fluoro-5-isopropylpyridin-2-yl)methyl)-4-fluoropyrrolidine-2-carboxamide] |
| 10 nM | 180 nM | > 100000 nM | CC(C)c1ccc([C@@H](NC(=O)[C@@H]2C[C@@H](F)CN2C(=O)Cc2cccc3ncccc23)c2ccccc2)nc1 [Compound 247, (2S,4R)-4-fluoro-N-[(S)-phenyl[5-(propan-2-yl)pyridin-2-yl]methyl]-1-[2-(quinolin-5-yl)acetyl]pyrrolidine-2-carboxamide] |
